Experimental data reported in ChEMBL document CHEMBL1909046, “DrugMatrix in vitro pharmacology data”.

How the values were obtained:
[1] = DRUGMATRIX: Atrial Natriuretic Factor (ANF) radioligand binding (ligand: [125I] ANF (rat)); type: cell membranes, Cavia porcellus, Dunkin-Hartley, Adrenal gland, Membrane; conditions: Not Active = under 50% inhibition at 10 µM
[2] = DRUGMATRIX: Serotonin (5-Hydroxytryptamine) 5-HT3 radioligand binding (ligand: [3H] GR-65630); type: cell membranes, Membrane; conditions: hek293; Not Active = under 50% inhibition at 10 µM
[3] = molecular target: T1, C-X-C chemokine receptor type 2 (Homo sapiens, UniProt P25025); type: cell membranes, Membrane; conditions: cho-k1; note: in other assays of this panel Not Active means under 50% inhibition at 10 µM
T1 sequence (P25025 whole entry): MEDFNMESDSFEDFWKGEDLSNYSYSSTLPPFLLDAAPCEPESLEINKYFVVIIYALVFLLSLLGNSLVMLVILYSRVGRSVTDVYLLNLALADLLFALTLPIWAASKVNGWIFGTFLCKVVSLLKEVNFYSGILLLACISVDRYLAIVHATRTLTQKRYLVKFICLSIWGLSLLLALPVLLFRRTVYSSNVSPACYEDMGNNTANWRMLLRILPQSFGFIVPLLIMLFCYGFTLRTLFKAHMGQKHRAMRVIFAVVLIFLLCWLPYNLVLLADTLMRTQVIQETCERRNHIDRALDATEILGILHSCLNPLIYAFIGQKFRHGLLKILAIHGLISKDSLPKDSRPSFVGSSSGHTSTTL

[4] = DRUGMATRIX: GABAA, Chloride Channel, TBOB radioligand binding (ligand: [3H] TBOB); type: cell membranes, Rattus norvegicus, Wistar, Cerebral cortex, Membrane; conditions: Not Active = under 50% inhibition at 10 µM
Melanocortin receptor 3 = Melanocortin receptor 3 (Homo sapiens, UniProt P41968); type: cell membranes, Membrane; conditions: hek293; note: in other assays of this panel Not Active means under 50% inhibition at 10 µM
[5] = molecular target: Delta-type opioid receptor (Homo sapiens, UniProt P41143); type: cell membranes, HEK293, Membrane; conditions: hek293; note: in other assays of this panel Not Active means under 50% inhibition at 10 µM
[6] = molecular target: cGMP-specific 3',5'-cyclic phosphodiesterase (Homo sapiens, UniProt O76074); assay: DRUGMATRIX: Phosphodiesterase PDE5 enzyme inhibition (substrate: [3H]cGMP + cGMP); type: tissue-based; conditions: platelet; Not Active = under 50% inhibition at 10 µM
Progesterone receptor = molecular target: T2, Progesterone receptor (Bos taurus, UniProt Q690N0); assay: DRUGMATRIX: Progesterone radioligand binding (ligand: [3H] R-5020); type: tissue-based, Uterus; conditions: Not Active = under 50% inhibition at 10 µM
T2 sequence (Q690N0 whole entry): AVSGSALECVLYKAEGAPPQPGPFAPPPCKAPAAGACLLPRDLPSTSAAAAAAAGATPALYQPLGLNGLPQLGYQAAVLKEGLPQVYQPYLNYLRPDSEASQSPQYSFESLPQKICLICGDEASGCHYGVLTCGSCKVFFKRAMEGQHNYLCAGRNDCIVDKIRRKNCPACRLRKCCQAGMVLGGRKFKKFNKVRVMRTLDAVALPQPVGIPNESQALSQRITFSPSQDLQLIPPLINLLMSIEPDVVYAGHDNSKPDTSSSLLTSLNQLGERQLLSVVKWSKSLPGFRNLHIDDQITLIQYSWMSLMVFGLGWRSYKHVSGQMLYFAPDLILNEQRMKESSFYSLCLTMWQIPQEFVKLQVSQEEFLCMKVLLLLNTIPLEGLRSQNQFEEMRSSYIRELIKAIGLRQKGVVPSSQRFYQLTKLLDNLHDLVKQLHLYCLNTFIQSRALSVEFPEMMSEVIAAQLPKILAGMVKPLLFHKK

Delta-type opioid receptor, sequence (P41143 whole entry): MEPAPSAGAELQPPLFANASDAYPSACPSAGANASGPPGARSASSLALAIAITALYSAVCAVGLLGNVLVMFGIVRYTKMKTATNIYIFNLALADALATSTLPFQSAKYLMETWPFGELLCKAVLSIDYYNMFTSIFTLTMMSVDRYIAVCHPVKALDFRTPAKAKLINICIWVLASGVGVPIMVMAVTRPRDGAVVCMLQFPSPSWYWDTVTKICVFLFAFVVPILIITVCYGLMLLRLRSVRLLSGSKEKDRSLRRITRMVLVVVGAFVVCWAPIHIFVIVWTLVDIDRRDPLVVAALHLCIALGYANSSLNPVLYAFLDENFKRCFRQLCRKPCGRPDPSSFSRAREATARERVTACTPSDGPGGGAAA
Melanocortin receptor 3, sequence (P41968 whole entry): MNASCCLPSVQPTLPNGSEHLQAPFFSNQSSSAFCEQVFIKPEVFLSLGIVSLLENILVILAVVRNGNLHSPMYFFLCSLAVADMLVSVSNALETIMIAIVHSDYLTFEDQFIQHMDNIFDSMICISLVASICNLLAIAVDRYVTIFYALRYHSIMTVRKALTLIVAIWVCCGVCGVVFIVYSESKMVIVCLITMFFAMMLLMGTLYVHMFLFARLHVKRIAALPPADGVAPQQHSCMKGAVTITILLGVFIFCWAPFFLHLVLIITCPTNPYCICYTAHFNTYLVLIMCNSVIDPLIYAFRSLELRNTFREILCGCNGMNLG

| SMILES | IC50 [1] | Ki [1] | IC50 [2] | Ki [2] | IC50 [3] | IC50 [4] | Ki [4] | IC50 (Melanocortin receptor 3) | IC50 [5] | IC50 [6] | IC50 (Progesterone receptor) | IC50 (Progesterone receptor; read-out: IC50) | Ki (Progesterone receptor; read-out: Ki) |
| --- | --- | --- | --- | --- | --- | --- | --- | --- | --- | --- | --- | --- | --- |
| O=NN(CCCl)C(=O)NCCCl [CARMUSTINE] | Not Active | Not Active | Not Active | Not Active | Not Active | Not Active | Not Active | Not Active | Not Active | Not Active | Not Active | – | – |
| O=C(C1CCCCC1)N1CC(=O)N2CCc3ccccc3C2C1 (configuration not stated) [PRAZIQUANTEL] | Not Active | Not Active | Not Active | Not Active | Not Active | Not Active | Not Active | Not Active | Not Active | Not Active | Not Active | – | – |
| C[C@]12CC[C@@H]3c4ccc(OC(=O)c5ccccc5)cc4CC[C@H]3[C@@H]1CC[C@@H]2O [ESTRADIOL BENZOATE] | Not Active | Not Active | Not Active | Not Active | Not Active | Not Active | Not Active | Not Active | Not Active | Not Active | – | 9.61 µM | 1.25 µM |
| C[N+](C)(C)CCO.[Cl-] [CHOLINE CHLORIDE] | Not Active | Not Active | Not Active | Not Active | Not Active | Not Active | Not Active | Not Active | Not Active | Not Active | Not Active | – | – |
| NC(=O)NO [HYDROXYUREA] | Not Active | Not Active | Not Active | Not Active | Not Active | Not Active | Not Active | Not Active | Not Active | Not Active | Not Active | – | – |
| C[C@@]12C(=O)OC(=O)[C@]1(C)[C@H]1CC[C@@H]2O1 [CANTHARIDIN] | Not Active | Not Active | Not Active | Not Active | Not Active | Not Active | Not Active | Not Active | Not Active | Not Active | Not Active | – | – |
| O=S(=O)([O-])CCS.[Na+] [MESNA] | Not Active | Not Active | Not Active | Not Active | Not Active | Not Active | Not Active | Not Active | Not Active | Not Active | Not Active | – | – |
| C/C=C/C[C@@H](C)[C@@H](O)[C@H]1C(=O)N[C@@H](CC)C(=O)N(C)CC(=O)N(C)[C@@H](CC(C)C)C(=O)N[C@@H](C(C)C)C(=O)N(C)[C@@H](CC(C)C)C(=O)N[C@@H](C)C(=O)N[C@H](C)C(=O)N(C)[C@@H](CC(C)C)C(=O)N(C)[C@@H](CC(C)C)C(=O)N(C)[C@@H](C(C)C)C(=O)N1C [CYCLOSPORINE] | Not Active | Not Active | Not Active | Not Active | Not Active | – | – | Not Active | Not Active | Not Active | Not Active | – | – |
| CCCCOc1ccc(OCCCN2CCOCC2)cc1 [PRAMOXINE] | Not Active | Not Active | Not Active | Not Active | Not Active | Not Active | Not Active | Not Active | Not Active | Not Active | – | – | – |
| C=C1CC[C@H](O)C/C1=C/C=C1\CCC[C@]2(C)[C@@H]([C@H](C)CCCC(C)C)CC[C@@H]12 [CHOLECALCIFEROL] | Not Active | Not Active | Not Active | Not Active | Not Active | Not Active | Not Active | Not Active | Not Active | Not Active | – | – | – |
| COc1ccc2cc([C@H](C)C(=O)O)ccc2c1 [NAPROXEN] | Not Active | Not Active | Not Active | Not Active | Not Active | Not Active | Not Active | Not Active | Not Active | – | Not Active | – | – |
